{
  "source": "patent US10577322B2",
  "about": "“5-methoxytryptophan and its derivatives and uses thereof” (National Health Research Institutes, priority 2015, dated 2020)",
  "key": {"[1]": {"system": "A549 lung cancer cells", "assay": "Transwell cell migration assay, A549", "type": "cell-based", "conditions": "30 min pretreatment, PMA 4 h or 24 h", "description": "(§1) Briefly, cells (10^4/well) were seeded on the upper chamber (6.5-mm insert, 8-μm polycarbonate membrane; Corning Inc.), which was placed in each well of a 24-well plate. The lower chamber was filled with 700 μL DMEM supplemented with 10% FBS. For assessment of in vitro invasion, cells were seeded onto the upper chamber insert coated with Matrigel (BD Biosciences) under the same conditions as the transwell migration assays. At the indicated time, nonmigrated cells that remained at the top surface of the insert were removed with a cotton swab. Cells that migrated to the lower membrane surface and cells that invaded through the matrigel gel to the underside of the membrane were fixed, stained with 0.1% crystal violet for 20 min, and counted under light microscopy. All of the assays were done in triplicate with excellent reproducibility.\n(§2) Lung cancer A549 and breast cancers BT474 and T47D cells were pretreated with different concentrations of 5-MTP or 5-MTPE for 30 min, then stimulated with PMA for 4 h or 24 h. Cell migration was measured by the transwell migration assay."}, "[2]": {"system": "BT474 breast cancer cells", "assay": "Transwell cell migration assay, BT474", "type": "cell-based", "conditions": "30 min pretreatment, PMA 4 h or 24 h", "description": "as §1, §2"}, "[3]": {"system": "T47D breast cancer cells", "assay": "Transwell cell migration assay, T47D", "type": "cell-based", "conditions": "30 min pretreatment, PMA 4 h or 24 h", "description": "as §1, §2"}, "[4]": {"system": "COX-2", "assay": "PMA-induced COX-2 expression in A549 cells (immunoblot)", "type": "cell-based", "conditions": "for PMA-induced COX-2 protein expression: 30 min pretreatment, PMA 8 h", "description": "(§3) Cellular protein were resolved by 5% to 20% SDS-PAGE and transferred to nitrocellulose membranes and blotted with specific antibodies as previously described (Lee, G. L., et al.).\nAfter pretreating A549 cells with different concentrations of 5-MTP, 5-MTPE and NACT-5-MTP for 30 min, cells were stimulated with PMA for 8 h. Cell lysates were immunoblotted with antibodies for COX-2 or β-actin."}, "[5]": {"system": "IL-6", "assay": "LPS-induced IL-6 level in RAW264.7 culture supernatants (ELISA)", "type": "cell-based, mouse", "conditions": "RAW264.7 cells; for LPS-induced IL-6 protein expression: LPS 8 h", "description": "(§4) Mouse RAW264.7 macrophages were from the American Type Culture Collection and cultured in DMEM containing 10% FBS. […] The duration of LPS (100 ng/ml) treatment varied depending on the experiment.\nMoreover, RAW264.7 cells and IL-6 promoter-luciferase plasmid transfected RAW264.7 cells were pretreated with different concentrations of 5-MTP for 30 min, followed by LPS stimulation for 8 h. IL-6 promoter activity was measured by luciferase assay. IL-6 level in culture supernatants was measured by ELISA.\nFurthermore, RAW264.7 cells were treated with different concentrations of 5-MTP or 5-MTPE for 24 h. Cell viability was determined by MTT assay. In another experiment, after pretreating RAW264.7 cells with different concentrations of 5-MTP or 5-MTPE for 30 min, cells were stimulated with LPS for 24 h. IL-6 level in culture supernatants was measured by ELISA.\n(§5) Herein, after pretreating RAW264.7 cells with different concentrations of 5-MTP, 5-MTPE, COX-2 inhibitors (NSC398 or SC560) and NF-κB inhibitor JSH-23 for 30 min, cells were stimulated with LPS. In addition, RAW264.7 cells were also transfected with COX-2 promoter-luciferase plasmid. After 24 h transfection, the cells were incubated with LPS for 8 h. Luciferase activity as measured."}, "[6]": {"system": "COX-2", "assay": "LPS-induced COX-2 protein expression in RAW264.7 cells (immunoblot)", "type": "cell-based, mouse", "conditions": "LPS 8 h", "description": "as §4, §3\n(§6) After pretreating mouse macrophage RAW264.7 cells with different concentrations of 5-MTP for 30 min, cells were stimulated with LPS for 8 h. Cell lysates were immunoblotted with antibodies for COX-2 or β-actin. In addition, RAW264.7 cells were transfected with COX-2 promoter-luciferase plasmid. After 24 h transfection, the cells were incubated with LPS for 8 h. Luciferase activity was measured."}, "[7]": {"system": "COX-2 promoter", "assay": "COX-2 promoter-luciferase assay in RAW264.7 cells", "type": "cell-based, mouse", "conditions": "LPS 8 h", "description": "RAW264.7 macrophages were cotransfected with COX-2 promoter-luciferase, IL-6 promoter-luciferase constructs as previously described (Lee, G. L., et al.) or p5xNF-κB-luciferase (Stratagene) and pcDNA3.1-β-galactosidase plasmids using FuGENE 6 (Roche). After overnight transfection, the cells were incubated with or without LPS in the presence or absence of 5-MTP for 8 h. After treatment, cells were lysed, and luciferase activity was measured using an assay kit (Promega). β-galactosidase activity was used to normalize the data.\nas §6, with “measured. The experiments were repeated 3 times with similar results. The results shown in FIGS. 3A-3B confirmed that 5-MTP blocked LPS-induced COX-2 protein expression and promoter activity in a concentration-dependent manner in RAW264.7 cells.” for “measured.”\nas §5"}},
  "data": [
    {"compound": "N-acetyl-5-MTP [NACT-5MTP]", "values": [
      {"measurement": "PMA-induced A549 cell migration", "setting": "[1]", "result": "abrogated"},
      {"measurement": "PMA-induced BT474 cell migration", "setting": "[2]", "result": "abrogated"},
      {"measurement": "PMA-induced T47D cell migration", "setting": "[3]", "result": "abrogated"},
      {"measurement": "PMA-induced COX-2 protein expression", "setting": "[4]", "result": "dose-dependently blocked"},
      {"measurement": "COX-2 suppressive activity compared with 5-MTP", "setting": "[4]; PMA", "result": "potent than that of 5-MTP"}
    ]},
    {"compound": "NCCc1c[nH]c2ccc(O)cc12", "note": "[Serotonin, reference compound]", "values": [
      {"measurement": "LPS-induced IL-6 protein expression", "setting": "[5]", "result": "neither serotonin nor 5-methoxytryptamine or tryptophan exerted an effect"},
      {"measurement": "PMA-induced COX-2 protein expression", "setting": "[4]", "result": "neither serotonin nor 5-methoxytryptamine or tryptophan exerted an effect"},
      {"measurement": "LPS-induced COX-2 protein expression", "setting": "[6]", "result": "neither serotonin nor 5-methoxytryptamine or tryptophan exerted an effect"}
    ]},
    {"compound": "N[C@@H](Cc1c[nH]c2ccccc12)C(=O)O", "note": "[Tryptophan]", "values": [
      {"measurement": "LPS-induced IL-6 protein expression", "setting": "[5]", "result": "neither serotonin nor 5-methoxytryptamine or tryptophan exerted an effect"},
      {"measurement": "PMA-induced COX-2 protein expression", "setting": "[4]", "result": "neither serotonin nor 5-methoxytryptamine or tryptophan exerted an effect"},
      {"measurement": "LPS-induced COX-2 protein expression", "setting": "[6]", "result": "neither serotonin nor 5-methoxytryptamine or tryptophan exerted an effect"}
    ]},
    {"compound": "Cc1ccc(NCCCc2ccccc2)c(N)c1", "note": "[JSH-23, reference compound]", "values": [
      {"measurement": "LPS-induced COX-2 promoter activity (luciferase)", "setting": "[7]", "result": "dose-dependently blocked"},
      {"measurement": "LPS-induced IL-6 level in culture supernatants", "setting": "[5]; 30 min pretreatment, LPS 24 h", "result": "dose-dependently blocked"}
    ]},
    {"compound": "COc1ccc2[nH]cc(CCN)c2c1", "note": "[5-methoxytryptamine, reference compound]", "values": [
      {"measurement": "LPS-induced IL-6 protein expression", "setting": "[5]", "result": "neither serotonin nor 5-methoxytryptamine or tryptophan exerted an effect"},
      {"measurement": "PMA-induced COX-2 protein expression", "setting": "[4]", "result": "neither serotonin nor 5-methoxytryptamine or tryptophan exerted an effect"},
      {"measurement": "LPS-induced COX-2 protein expression", "setting": "[6]", "result": "neither serotonin nor 5-methoxytryptamine or tryptophan exerted an effect"}
    ]}
  ]
}
